Reference: patent publication US20220363686A1 (AiCuris GmbH & Co. KG, priority 2018, published 2022)
Read-outs that look alike come from different tables or passages of the source.

How the values were obtained:
[1] = target: HBV core protein (C-terminal truncated core protein containing 149 amino acids of the N-terminal assembly domain) (UniProt P03146); assay: Biochemical capsid assembly assay (fluorescence quenching); set-up: rows headed: Assembly Activity; other: BODIPY-FL labelled core protein, assembly started with NaCl, read after 6 min; conditions: read-out: Assembly Activity; BODIPY-FL labelled core protein, assembly started with NaCl, read after 6 min
Procedure, shortened: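 N-terminal assembly domain (residues 1–149) plus C-terminal Cys150, E. coli-expressed, BODIPY-FL-maleimide labelled, used at 1.0–2.0 μM in 50 mM HEPES pH 7.5 with 0.5% DMSO. Assembly started with NaCl ([…]); fluorescence quenching (ex 477/em 525 nm) read after 6 min. 8-point compound series; EC50 by non-linear regression.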

[2] = Cell viability assay (AlamarBlue); conditions: human, HepAD38 cells
[3] = tested on: HBV; assay: Determination of HBV DNA from the supernatants of HepAD38 cells (anti-HBV activity); format: cell-based, hepatitis B virus; conditions: Hepatitis B virus, HePAD38, 144 h, HBV DNA in HepAD38 supernatant, day 6, qPCR, read-out: Cell Activity
Procedure, shortened: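 EC50 derived by non-linear regression of relative HBV DNA copy numbers, measured by qPCR (plasmid standards) in day-6 filtered supernatants. Before this, HepAD38 cells were exposed to serial half-log compound dilutions without tetracycline, releasing viral expression; cultures kept at 37 °C, 5% CO2.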

HBV core protein (C-terminal truncated core protein containing 149 amino acids of the N-terminal assembly domain), sequence (P03146 whole entry, the tested form may be a part): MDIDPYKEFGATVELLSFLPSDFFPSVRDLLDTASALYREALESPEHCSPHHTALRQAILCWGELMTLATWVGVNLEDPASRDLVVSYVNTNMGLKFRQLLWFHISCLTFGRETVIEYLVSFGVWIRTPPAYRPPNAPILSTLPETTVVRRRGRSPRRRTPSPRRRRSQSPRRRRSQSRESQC

Compound | IC50 [1] [µM] | CC50 at 6 days [2] [µM] | EC50 [3] [µM] | EC50 ([3]; printed as number instead of class symbol) [µM]
CN(C(=O)c1cnn2c1CN(C(=O)c1cc3ccccc3[nH]1)CC2)C1(CNCC(F)(F)F)CC1 [Example 80, 5-(1H-indole-2-carbonyl)-N-methyl-N-(1-{[(2,2,2-trifluoroethyl)amino]methyl}cyclopropyl)-4H,5H,6H,7H-pyrazolo[1,5-a]pyrazine-3-carboxamide] | < 5 | > 10 | < 1 | 
O=C(c1cc2ccccc2[nH]1)N1CCn2ncc(C3(O)CCC3)c2C1 [Example 45, 1-[5-(1H-indole-2-carbonyl)-4H,5H,6H,7H-pyrazolo[1,5-a]pyrazin-3-yl]cyclobutan-1-ol] | 5 to 10 | > 10 | 1 to 10 | 
CN(CCOC(F)F)C(=O)c1cnn2c1CN(C(=O)c1cc3ccccc3[nH]1)CC2 [Example 62, N-[2-(difluoromethoxy)ethyl]-5-(1H-indole-2-carbonyl)-N-methyl-4H,5H,6H,7H-pyrazolo[1,5-a]pyrazine-3-carboxamide] | < 5 | > 10 |  | > 10
O=C(c1cc2ccccc2[nH]1)N1CCn2ncc(S(=O)(=O)NCC3CCOC3)c2C1 (stereo not drawn) [Example 33, 5-(1H-indole-2-carbonyl)-N-[(oxolan-3-yl)methyl]-4H,5H,6H,7H-pyrazolo[1,5-a]pyrazine-3-sulfonamide] | 5 to 10 | > 10 | 1 to 10 | 
COCC1(N(C)C(=O)c2cnn3c2CN(C(=O)c2cc4ccccc4[nH]2)C(C)C3)CC1 (stereo not drawn) [Example 1, 5-(1H-indole-2-carbonyl)-N-[1-(methoxymethyl)cyclopropyl]-N,6-dimethyl-4H,5H,6H,7H-pyrazolo[1,5-a]pyrazine-3-carboxamide] | < 5 | > 10 | < 1 | 
O=C(c1cc2ccccc2[nH]1)N1CCn2ncc(C(=O)N3CCCOCC34CC4)c2C1 [Example 67, 4-[5-(1H-indole-2-carbonyl)-4H,5H,6H,7H-pyrazolo[1,5-a]pyrazine-3-carbonyl]-8-oxa-4-azaspiro[2.6]nonane] | < 5 | > 10 | < 1 | 
O=C(c1cc2ccccc2[nH]1)N1CCn2ncc(S(=O)(=O)NCC3(O)CCC3)c2C1 [Example 27, N-[(1-hydroxycyclobutyl)methyl]-5-(1H-indole-2-carbonyl)-4H,5H,6H,7H-pyrazolo[1,5-a]pyrazine-3-sulfonamide] | 5 to 10 | > 10 | 1 to 10 | 
O=C(c1cc2ccccc2[nH]1)N1CCn2ncc(C(=O)N3CC4CC4C3)c2C1 (stereo not drawn) [Example 43, 2-(3-{3-azabicyclo[3.1.0]hexane-3-carbonyl}-4H,5H,6H,7H-pyrazolo[1,5-a]pyrazine-5-carbonyl)-1H-indole] | < 5 | > 10 | < 100 | 
Cc1cc(F)cc2[nH]c(C(=O)N3CCn4ncc(C(=O)N(C)C5(CO)CC5)c4C3)cc12 [Example 83, 5-(6-fluoro-4-methyl-1H-indole-2-carbonyl)-N-[1-(hydroxymethyl)cyclopropyl]-N-methyl-4H,5H,6H,7H-pyrazolo[1,5-a]pyrazine-3-carboxamide] | < 5 | > 10 | < 1 | 
C[C@@H](NC(=O)c1cnn2c1CN(C(=O)c1cc3c(Cl)cccc3[nH]1)CC2)C(F)(F)F [Example 115, 5-(4-chloro-1H-indole-2-carbonyl)-N-[(2R)-1,1,1-trifluoropropan-2-yl]-4H,5H,6H,7H-pyrazolo[1,5-a]pyrazine-3-carboxamide] | < 5 | > 10 | < 1 | 
C[C@@H](NC(=O)c1cnn2c1CN(C(=O)c1cc3c(F)c(F)ccc3[nH]1)CC2)C(F)(F)F [Example 114, 5-(4,5-difluoro-1H-indole-2-carbonyl)-N-[(2R)-1,1,1-trifluoropropan-2-yl]-4H,5H,6H,7H-pyrazolo[1,5-a]pyrazine-3-carboxamide] | < 5 | > 10 | < 1 | 
O=C(c1cc2ccccc2[nH]1)N1CCn2ncc(C(=O)N3CCC(OC(F)F)CC34CC4)c2C1 (stereo not drawn) [Example 59, 2-{3-[7-(difluoromethoxy)-4-azaspiro[2.5]octane-4-carbonyl]-4H,5H,6H,7H-pyrazolo[1,5-a]pyrazine-5-carbonyl}-1H-indole] | < 5 | > 10 | < 1 | 
